Test results reported in patent publication EP4509511A1, “SUBSTITUTED SPIRO-ISOXAZOLINYL LACTAMS, SALTS THEREOF AND THEIR USE AS HERBICIDALLY ACTIVE SUBSTANCES” (Bayer Aktiengesellschaft, priority 2023, dated 2025).

System: DIGSA
Experiment: Herbicidal post-emergence action - Part I
Format: in vivo, Digitaria sanguinalis
Settings: one-leaf stage, rated visually after about 3 weeks vs untreated controls
Procedure: Seeds of mono- and dicotyledonous weed plants were placed in plastic pots in sandy loam soil (doubly sown with in each case one species of mono- or dicotyledonous weed plants per pot), covered with soil and cultivated in a greenhouse under controlled growth conditions. 2 to 3 weeks after sowing, the test plants were treated at the one-leaf stage. The compounds of the invention, formulated in the form of wettable powders (WP) or as emulsion concentrates (EC), were applied onto the green parts of the plants as aqueous suspension or emulsion with addition of 0.5% additive at a water application rate of 600 liters per hectare (converted). After the test plants had been kept in the greenhouse under optimum growth conditions for about 3 weeks, the activity of the preparations was rated visually in comparison to untreated controls. For example, 100% activity = the plants have died, 0% activity = like control plants. Tables B1 to B12, below, show the effects of selected compounds of the general formula (I) according to table 1 on various harmful plants and an application rate corresponding to 1280 g/ha or below obtained by the experimental procedure mentioned above. Table B1a: post-emergence activity at 1280g/ha against ABUTH in %

Cc1ccsc1C1=NOC2(CCCN(Cc3c(F)cccc3F)C2=O)C1 (racemic) [Compound I-2]
post-emergence activity at 320g/ha against DIGSA in % (320 g/ha): 90% | post-emergence activity at 1280g/ha against DIGSA in % (1280 g/ha): 90%
